{"source": "patent US4678775A", "about": "“Method of controlling pests” (priority 1984, dated 1987)", "key": {"[1]": {"system": "octopamine-sensitive adenylate cyclase", "conditions": "Nathanson et al. 1981; cited from earlier work"}, "[2]": {"system": "Beta1 and Beta2-adrenergic-stimulated adenylate cyclase in rat liver", "experiment": "Adenylate cyclase stimulation in rat liver", "assay_type": "biochemical"}, "[3]": {"biological_target": "T1, Beta1 and Beta2-adrenergic-stimulated adenylate cyclase in rat liver (Rattus norvegicus, UniProt P10608)", "T1 construct": "adenylate cyclase in rat heart and liver; from tissue; host or cells: rat liver", "T1 sequence (P10608 whole entry)": "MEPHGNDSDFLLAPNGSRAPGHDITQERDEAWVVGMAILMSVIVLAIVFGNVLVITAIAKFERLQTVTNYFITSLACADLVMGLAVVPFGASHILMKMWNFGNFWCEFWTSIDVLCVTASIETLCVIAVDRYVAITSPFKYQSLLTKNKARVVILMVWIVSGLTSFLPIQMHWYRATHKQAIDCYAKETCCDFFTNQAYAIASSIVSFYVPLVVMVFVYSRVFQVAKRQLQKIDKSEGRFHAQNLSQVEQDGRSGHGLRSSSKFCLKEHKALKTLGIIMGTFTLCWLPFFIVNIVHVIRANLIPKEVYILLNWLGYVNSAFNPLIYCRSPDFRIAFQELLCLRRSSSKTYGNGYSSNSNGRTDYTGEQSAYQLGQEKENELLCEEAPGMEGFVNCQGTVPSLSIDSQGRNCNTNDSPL", "experiment": "Adenylate cyclase stimulation in rat liver", "assay_type": "biochemical"}, "[4]": {"biological_target": "T2, dopamine-sensitive adenylate cyclase in rat caudate nucleus (Rattus norvegicus, UniProt P18901)", "T2 construct": "in the rat caudate nucleus; from tissue; host or cells: rat caudate nucleus", "T2 sequence (P18901 whole entry)": "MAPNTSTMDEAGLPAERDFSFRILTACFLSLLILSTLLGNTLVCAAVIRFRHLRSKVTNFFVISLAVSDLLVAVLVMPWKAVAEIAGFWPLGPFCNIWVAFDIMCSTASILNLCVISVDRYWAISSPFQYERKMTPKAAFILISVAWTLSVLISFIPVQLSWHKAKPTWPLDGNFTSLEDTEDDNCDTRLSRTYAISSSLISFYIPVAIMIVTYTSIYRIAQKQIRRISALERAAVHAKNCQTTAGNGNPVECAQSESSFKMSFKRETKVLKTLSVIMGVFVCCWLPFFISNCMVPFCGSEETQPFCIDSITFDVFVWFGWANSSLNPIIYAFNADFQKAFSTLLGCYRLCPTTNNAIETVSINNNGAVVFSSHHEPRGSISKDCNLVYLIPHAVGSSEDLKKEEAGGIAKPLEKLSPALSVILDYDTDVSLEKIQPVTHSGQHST", "experiment": "Adenylate cyclase stimulation in rat caudate nucleus", "assay_type": "biochemical"}, "[5]": {"system": "Beta1 and Beta2-adrenergic-stimulated adenylate cyclase in rat heart", "experiment": "Adenylate cyclase stimulation in rat heart", "assay_type": "biochemical"}, "[6]": {"biological_target": "T3, Beta1 and Beta2-adrenergic-stimulated adenylate cyclase in rat heart (Rattus norvegicus, UniProt P18090)", "T3 construct": "adenylate cyclase in rat heart and liver; from tissue; host or cells: rat heart", "T3 sequence (P18090 whole entry)": "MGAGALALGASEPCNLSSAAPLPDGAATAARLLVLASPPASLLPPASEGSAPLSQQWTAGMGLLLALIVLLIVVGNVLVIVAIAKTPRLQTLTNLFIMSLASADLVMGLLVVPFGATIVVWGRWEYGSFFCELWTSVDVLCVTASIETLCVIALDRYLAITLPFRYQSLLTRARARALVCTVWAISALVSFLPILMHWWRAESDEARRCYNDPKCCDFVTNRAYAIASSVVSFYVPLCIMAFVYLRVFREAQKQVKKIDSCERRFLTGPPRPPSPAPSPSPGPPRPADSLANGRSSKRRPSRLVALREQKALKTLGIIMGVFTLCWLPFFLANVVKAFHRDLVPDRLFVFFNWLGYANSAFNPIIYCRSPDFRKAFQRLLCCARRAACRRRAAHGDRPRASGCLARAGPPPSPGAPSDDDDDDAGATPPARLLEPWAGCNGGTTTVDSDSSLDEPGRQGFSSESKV", "experiment": "Adenylate cyclase stimulation in rat heart", "assay_type": "biochemical"}, "[7]": {"system": "octopamine-sensitive adenylate cyclase", "experiment": "Activation of octopamine-sensitive adenylate cyclase, firefly light organ broken cell preparation", "assay_type": "biochemical, Photinus pyralis"}, "[8]": {"system": "isolated tails of Photinus males", "experiment": "Stimulation of light production after injection into transected, isolated firefly tails", "assay_type": "in vivo"}, "[9]": {"system": "tobacco hornworms (Manducca sexta)", "experiment": "In vivo leaf test (antifeeding) on tomato leaves with tobacco hornworm larvae", "conditions": "for effect of addition of IBMX on antifeeding / pesticidal activity: with PDE inhibitor IBMX"}, "[10]": {"experiment": "Cyclic AMP analogue remaining after incubation with nerve cord homogenate", "assay_type": "in vitro ADME, tobacco hornworm", "conditions": "in vitro 4 hours; IBMX 0.1 mM; FIG. 7", "description": "It has been previously shown, above, that PDE inhibition can increase the concentration of cyclic AMP in insect tissue. […] In order to do this, a fixed amount of butyl-benzylthio cyclic AMP was incubated in vitro for 4 hours in the presence of a tissue homogenated from tobacco hornworm nerve cord. In some tubes, IBMX (0.1 mM) was added to inhibit PDE. After the incubation, the amount of butyl-benzylthio cyclic AMP remaining was measured by protein binding assay (Brown et al., supra), using a standard curve based upon butyl-benzylthio cyclic AMP."}}, "data": [{"compound": "CNC=Nc1ccc(Cl)cc1C", "note": "[DCDM, N-demethylchlordimeform]", "values": [{"measurement": "potency relative to octopamine as partial agonist of light organ octopamine-stimulated adenylate cyclase", "setting": "[1]", "value": "about six-fold more potent than octopamine"}]}, {"compound": "CCc1cccc(CC)c1N=C1NCCN1", "note": "[NC 5, 2-(2,6-diethylphenylimino)imidazolidine]", "values": [{"measurement": "inhibition of basal adenylate cyclase activity", "setting": "[2]", "value": "In none of the three mammalian tissues did NC5 cause any inhibition"}, {"measurement": "stimulation of adenylate cyclase", "setting": "[3]", "value": "neither octopamine nor NC5 were active"}, {"measurement": "inhibition of basal adenylate cyclase activity", "setting": "[4]", "value": "In none of the three mammalian tissues did NC5 cause any inhibition"}, {"measurement": "stimulation of adenylate cyclase", "setting": "[4]", "value": "neither octopamine nor NC5 caused any significant enzyme stimulation"}, {"measurement": "inhibition of basal adenylate cyclase activity", "setting": "[5]", "value": "In none of the three mammalian tissues did NC5 cause any inhibition"}, {"measurement": "stimulation of adenylate cyclase", "setting": "[6]", "value": "almost completely inactive"}, {"measurement": "Ka (half-maximal activation)", "setting": "[7]", "value": "about 1 μM"}, {"measurement": "Ka fold lower than that due to octopamine", "setting": "[7]", "value": 20, "unit": "fold"}, {"measurement": "maximal stimulation relative to octopamine", "setting": "[7]", "value": "equal to that caused by octopamine"}, {"measurement": "Ka ratio to octopamine", "setting": "[7]; Table 2, clonidines", "value": 19.0}, {"measurement": "Vmax (% OCT)", "setting": "[7]; Table 2, clonidines, N.A. = no activity", "value": 97, "unit": "% OCT"}, {"measurement": "activity as an octopamine antagonist", "setting": "[7]; combinations of octopamine and NC5", "value": "no activity as an octopamine antagonist"}, {"measurement": "lowest concentration with significant stimulation", "setting": "[7]; unit not given", "value": "3×10^-8"}, {"measurement": "EC50 for stimulated light emission", "setting": "[8]; injected into isolated tails", "value": "about 0.3 nmoles"}, {"measurement": "times as potent as octopamine", "setting": "[8]; light emission EC50", "value": "more than 16 times"}, {"measurement": "% Leaf Remaining", "setting": "[9]; Table 5, agonist 3 × 10^-1 gm/100 ml, IBMX 0.1 g/100 ml", "value": 70, "unit": "%"}, {"measurement": "effect of addition of IBMX on antifeeding / pesticidal activity", "setting": "[9]", "value": "substantial increases in the potency"}]}, {"compound": "CCCCNc1ncnc2c1nc(SCc1ccccc1)n2[C@@H]1O[C@@H]2COP(=O)(O)O[C@H]2[C@H]1O", "note": "[n-butylaminobenzylthio cyclic AMP, 6-n-butylamino-8-benzylthio-cyclic AMP, reference compound]", "values": [{"measurement": "amount of cyclic AMP analogue present after 4 hours, with IBMX versus without", "setting": "[10]", "value": "more than doubled"}, {"measurement": "antifeeding activity", "setting": "[9]; concentration of 1%, absence of IBMX", "value": "showed antifeeding activity"}, {"measurement": "effect of addition of IBMX on antifeeding / pesticidal activity", "setting": "[9]", "value": "increased by addition of IBMX"}]}]}
